Source: US6428983B1, “Histone deacetylase as target for antiprotozoal agents” (Merck & Co., priority 1995, dated 2002)
Values belong to the molecule of their own block, whether it stands above or below them.

Experiments:
[1] = tested on: HeLa cell histones; experiment: Histone acetylation state in HeLa cells (AUT gel electrophoresis); format: cell-based, human; details: HeLa cells treated 4 hrs, FIG. 1, relative to untreated cells
Procedure: About 2×10^7 HeLa cells growing at 37 C were treated with various compounds in the standard tissue culture medium (MEM containing 10% fetal calf serum) for 4 hrs. Cells were then removed from the flask by scraping in PBS in a total volume of about 10 mls. The cells were washed twice in PBS and resuspended in about 3 mls lysis buffer (Lysis buffer; 0.45% Nonidet® P-40, 10 mM tris, 10 mM NaCl, 5 mM MgCl, 0.1 mM EGTA, 0.1 mM PMSF). The suspension was mixed by vortexing for 10 seconds, incubated on ice for 15 minutes and nuclei were pelleted by centrifugation through a 1 ml cushion of 30% sucrose in lysis buffer at 1300×g for 10 minutes. The supernatant was discarded and the nuclei were then resuspended in 1.0 ml water. H2SO4 was added to a final concentration of 0.4M and the nuclear suspension was incubated on ice for 30 min. and then pelleted by centrifugation at 13,000×g for 10 minutes. The pellets were discarded, and ten volumes of ice cold acetone was added to the supernatant proteins and left overnight at −20° C. to precipitate soluble proteins. These proteins (predominantly histones) were pelleted by centrifugation at 10,000×g for 15 minutes at 4° C. and resuspended in AUT sample buffer (Sample buffer: 0.9M acetic acid, 0.02% w/v methyl green) in preparation for gel electrophoresis.
Acid urea triton (AUT) polyacrylamide gels were performed according to the methods of Alfageme et al (1974) J. Biol. Chem. 249, 3729, with modifications as described in Lennox and Cohen (Methods in Enzymology, 170, 532-549). For optimal resolution of HeLa cell and Plasmodium falciparum histones the separation gel contained 7.5M urea, 12% acrylamide, 0.38% Triton® X 100, 0.08% bis acrylamide, and 0.87M acetic acid. The loading gels contained 7.5M urea, 0.37% Triton X 100, 6% acrylamide, 0.04% bis acrylamide and 0.87M acetic acid. […] Gels were either stained with Coomassie Brilliant Blue R in 7% acetic acid, 20% methanol and then destained in 7% acetic acid and 20% methanol, or treated with Enlightening (from New England Nuclear), dried and radiolabel detected by fluorography.

[2] = tested on: P. falciparum histones; experiment: Histone acetylation state in P. falciparum (14C acetate labeling, AUT gel); format: cell-based; details: infected red blood cells, 14C sodium acetate, 2 hours, FIG. 2
Procedure: Acid urea triton (AUT) polyacrylamide gels were performed according to the methods of Alfageme et al (1974) J. Biol. Chem. 249, 3729, with modifications as described in Lennox and Cohen (Methods in Enzymology, 170, 532-549). For optimal resolution of HeLa cell and Plasmodium falciparum histones the separation gel contained 7.5M urea, 12% acrylamide, 0.38% Triton® X 100, 0.08% bis acrylamide, and 0.87M acetic acid. The loading gels contained 7.5M urea, 0.37% Triton X 100, 6% acrylamide, 0.04% bis acrylamide and 0.87M acetic acid. Gels were run in 1M acetic acid. Gels were pre-electrophoresed at 350V for 1 hour and run at 450V for 3.5 hours. Gels were either stained with Coomassie Brilliant Blue R in 7% acetic acid, 20% methanol and then destained in 7% acetic acid and 20% methanol, or treated with Enlightening (from New England Nuclear), dried and radiolabel detected by fluorography.
Approximately 1×10^9 P. falciparum infected red blood cells (about 60% parasitized) were resuspended in 10 ml of RPMI 1640 containing various concentrations of test compounds and 250 μCi ^14C sodium acetate and incubated at 37° C. for 2 hours. The cells were then washed 3 time with PBS and histones were prepared as described below.
Histones were prepared according to the method of Cary et al (1994) Parasitology Research, 80, 255-258. […]

[3] = tested on: histone deacetylase (chicken liver extracts); experiment: Histone deacetylase inhibition assay (Assay 1), chicken liver extract; format: biochemical; details: Assay 1, chicken liver extracts
Procedure: (§1) The standard assay contained in a total volume of 40 μL: 400 nmol HEPES-sodium, pH 7.4, 100 pmol of the substrate [AcGly-Ala-Lys(ε-^14C-Ac)-Arg-His-Arg-Lys(ε-^14C-Ac)-ValNH2] (see Kervabon et al (1979) FEBS Letters 106: 93-96) having a specific activity of approx. 114 mCi/mmol, and a source of histone deacetylase (HDAase) activity. The amount of HDAase added was chosen such that ≦20% of the substrate was consumed during the assay. The reaction was initiated by enzyme addition and allowed to proceed for 60 min at 41°. At 60 min, the reaction was terminated by the addition of a 50% slurry of Amberlite® AG 50W×4 cation exchange resin, sodium form (200-400 mesh) in 25 mM sodium acetate buffer, pH 4.2 (200 μL). The resin binds both remaining substrate and the (partially) deacetylated peptidyl products. The quenched reaction was then incubated for at least 30 min at 25° with occasional mixing, diluted with additional 25 mM sodium acetate buffer, pH 4.2 (760 μL; final volume 1000 μL), incubated for a minimum of an additional 30 min at 25° with occasional mixing, and then centrifuged at 10,000×g for 1 min. An aliquot of the supernatant (800 μL) containing the enzymatically released ^14C-acetate was removed, mixed with Aquasol 2 liquid scintillation counter (LSC) cocktail (10 mL), and counted in a Beckman model LS-5801 LSC. […]

[4] = target: histone deacetylase (E. tenella lysate); experiment: Competitive binding assay with 3H-N-desmethoxyapicidin, E. tenella S100 lysate; details: 3H-N-desmethoxyapicidin ligand
Procedure: E. tenella oocysts. Approximately 2×10^9 E. tenella oocysts are suspended in 5 ml of PBS/0.1 mM PMSF, 4 mls of an equal mixture (vol/vol) of 4.0 and 1.0 mm glass beads is added. The glass bead-oocyst mixture is then shaken for 20 minutes to cause disruption of the oocysts. The efficiency of breakage is checked microscopically. The resulting homogenate is separated from the glass beads and centrifuged at 3000×g for 10 min. The supernatant is then subjected to an additional centrifugation at 100,000 g for 1 hr. The pellet is discarded and the supernatant, referred to as the E. tenella S100 fraction, is retained for binding assays. After estimating the protein concentration, the supernatant (S100) is aliquoted and frozen at −80 C.
(§2) Each assay tube contains a final volume of 1 ml with 1.3 ng/ml of ^3H-N-desmethoxyapicidin, 150-200 μg of the appropriate S100 supernatant and concentrations of potential HDA inhibitors from 0.001-10 μg/ml.
(§3) (i) labeled substrate. […]
(§4) Stock solutions of potential HDA inhibitors (ii) are diluted into 50 mM HEPES/Triton® buffer to achieve a final concentration of test compound in the range of 0.001-10 μM. ^3H-N-desmethoxyapicidin is added to a final concentration of 1.3 ng/ml. […] The filter is then dried and counted in scintillant.

[5] = tested on: histone deacetylase (chicken liver lysate); experiment: Competitive binding assay with 3H-N-desmethoxyapicidin, chick liver S100 lysate; details: 3H-N-desmethoxyapicidin ligand
Procedure: Chick Liver. Livers from 3-5 three week old chickens are collected, rinsed in ice cold phosphate buffered saline (pH 7.4), diced into small pieces and rinsed again 3-4 times with ice cold 50 mM N-2-hydroxyethylpiperazine-N′-2-ethanesulfonic acid (HEPES) (pH 7.4) containing 0.1 mM phenylmethanesulfonyl fluoride (PMSF). The tissue is then resuspended in HEPES buffer, homogenized in a polytron homogenizer and centrifuged at 3000×g for 10 min. The supernatant is then subjected to an additional 100,000 g centrifugation for 1 hour. The pellet and the floating layer of lipid are discarded and the supernatant, referred to as the chick liver S100 fraction, is retained for binding assays. After estimating the protein concentration, the supernatant (S100) is aliquoted and frozen at −80 C.
as §2, §3, §4

[6] = tested on: histone deacetylase (E. tenella extract); experiment: Histone deacetylase inhibition assay (Assay 1), E. tenella extract; format: biochemical, Eimeria tenella
Procedure: as §1

[7] = tested on: E. tenella; experiment: In vitro antiparasitic activity against E. tenella; format: cell-based, Eimeria tenella
Description: (1) Generally following the procedure described in Crane, Schmatz, Stevens, Habbersett and Murray. Eimeria tenella: in vitro development in irradiated bovine kidney cells.(1984) Parasitology 88: 521-530.

[8] = tested on: P. falciparum; experiment: In vitro antiparasitic activity against P. falciparum; format: cell-based
Description: (2) Generally following the procedure described in Desjardins et al, “Quantitative Assessment of Antimalarial Activity In Vitro by a Semiautomated Microdilution Technique” Antimicrobial Agents and Chemotherapy 1979, 16:710-718.

Compound: C[C@@H]1NC(=O)[C@H]2CCCN2C(=O)[C@H](CCCCCC(=O)[C@@H]2CO2)NC(=O)[C@@H](C)NC1=O [HC-toxin]
- Hyperacetylation of HeLa cell histones (shift in histone gel profile) [1]: cause a distinct shift in the histone gel profiles

Compound: CCC(=O)CCCCC[C@@H]1NC(=O)[C@H]2CCCCN2C(=O)[C@H]([C@@H](C)CC)NC(=O)[C@H](Cc2cn(OC)c3ccccc23)NC1=O [apicidin, Apicidin]
- Hyperacetylation of P. falciparum histones [2]: cause hyperacetylation
- Hyperacetylation of HeLa cell histones (shift in histone gel profile) [1]: cause a distinct shift in the histone gel profiles

- IC50 in enzyme inhibition assay, chicken liver extract [3]: inactive
- IC50 [4]: > 1000 nM
- IC50 in binding assay, E. tenella lysate [4]: no activity
- IC50 in binding assay, chicken liver lysate [5]: no activity
- IC50 in enzyme inhibition assay, E. tenella extract [6]: inactive
- IC50 against P. falciparum [8]: not active
Compound: CC(/C=C/C(=O)O)=C\[C@@H](C)C(=O)c1ccc(N(C)C)cc1 [trichostatic acid]
- minimum inhibitory concentration against E. tenella [7]: not active

Compound: CC(/C=C/C(=O)NO)=C\[C@@H](C)C(=O)c1ccc(N(C)C)cc1 [trichostatin]
- Hyperacetylation of P. falciparum histones [2]: cause hyperacetylation
- Hyperacetylation of HeLa cell histones (shift in histone gel profile) [1]: cause a distinct shift in the histone gel profiles
